“And” between values parts separate entries of the source, which are not always exact repeats. Equal values may be shown once. Inconclusive results and toxic doses are left out. Rule as the data show it: active = T/C of 150% or more; inactive = T/C below 125%.
Test system: L1210 leukemia ip in BDF1 mice, survival T/C
Experiment: NCI In Vivo Anticancer Drug Screen. Data for tumor model L1210 Leukemia (intraperitoneal) in B6D2F1 (BDF1) mice
Settings: endpoint: mean survival time, higher = longer survival
Outline: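 Mice bearing the transplanted tumor received compound or vehicle. Survival of the treated group was divided by that of the vehicle-treated control group to give the ratio.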

[1] = dose: 100.0 mg/kg/injection, schedule: Q01DX009 (ip), vehicle: Klucel (hydroxypropylcellulose) (HPC)
[2] = dose: 100.0 mg/kg/injection, schedule: Q04DX003 (ip), vehicle: Klucel (hydroxypropylcellulose) (HPC)
[3] = dose: 200.0 mg/kg/injection, schedule: Q04DX003 (ip), vehicle: Klucel (hydroxypropylcellulose) (HPC)
[4] = dose: 400.0 mg/kg/injection, schedule: Q04DX003 (ip), vehicle: Klucel (hydroxypropylcellulose) (HPC)
[5] = dose: 75.0 mg/kg/injection, schedule: Q01DX001 (ip), vehicle: other
[6] = dose: 100.0 mg/kg/injection, schedule: Q04DX002 (ip), vehicle: saline
[7] = dose: 200.0 mg/kg/injection, schedule: Q01DX009 (ip), vehicle: Klucel (hydroxypropylcellulose) (HPC)

Measured: T/C

CCOc1n[n+]([O-])c(Cl)c(C)c1[N+](=O)[O-]
inactive: dose: 25.0 mg/kg/injection, schedule: Q04DX002 (ip), vehicle: saline with Tween-80 96 % of control | dose: 50.0 mg/kg/injection, schedule: Q04DX002 (ip), vehicle: saline with Tween-80 92 % of control | dose: 100.0 mg/kg/injection, schedule: Q04DX002 (ip), vehicle: saline with Tween-80 96 % of control

CCC(Br)C(=O)Nc1c(C)cccc1Cl (stereo not given)
inactive: dose: 25.0 mg/kg/injection, schedule: Q01DX009 (ip), vehicle: Klucel (hydroxypropylcellulose) (HPC) 97 % of control | dose: 50.0 mg/kg/injection, schedule: Q01DX009 (ip), vehicle: Klucel (hydroxypropylcellulose) (HPC) 98 % of control | [1] 94 % of control and 101 % of control | [2] 97 % of control | [3] 95 % of control | [4] 97 % of control

O=C1NC(=O)N(Cc2ccccc2)C(=O)C1Cc1ccccc1 (stereo not given)
inactive: dose: 100.0 mg/kg/injection, schedule: Q01DX001 (ip), vehicle: carboxymethylcellulose (CMC) 97 % of control | dose: 200.0 mg/kg/injection, schedule: Q01DX001 (ip), vehicle: carboxymethylcellulose (CMC) 95 % of control | dose: 400.0 mg/kg/injection, schedule: Q01DX001 (ip), vehicle: carboxymethylcellulose (CMC) 103 % of control

CC(C)N=Cc1ccccc1O.CC(C)N=Cc1ccccc1O.[Cu]
inactive: [5] 113 % of control

CCCC(C)(O)C(=O)O (stereo not given)
inactive: dose: 25.0 mg/kg/injection, schedule: Q04DX002 (ip), vehicle: saline 100 % of control | dose: 50.0 mg/kg/injection, schedule: Q04DX002 (ip), vehicle: saline 103 % of control | [6] 95 % of control

COc1ccc(/C=C2\C(=O)OC(=O)\C2=C\c2ccc(OC)c(OC)c2)cc1OC
inactive: [1] 100 % of control | [2] 102 % of control | [7] 97 % of control | [3] 102 % of control | [4] 96 % of control

COC(=O)[C@@H]1c2cc3c(c(O)c2[C@@H](OC2OC(C)C(OC)C(C)(OC)C2OC)C[C@]1(C)O)C(=O)c1c(O)cc2c(c1C3=O)O[C@H]1O[C@]2(C)[C@H](O)[C@@H](N(C)C)[C@@H]1O (stereo not given in full)
inactive: dose: 0.2 mg/kg/injection, schedule: Q01DX Z (ip), vehicle: saline 98 % of control | dose: 0.25 mg/kg/injection, schedule: Q01DX009 (ip), vehicle: saline 102 % of control | dose: 0.3 mg/kg/injection, schedule: Q01DX Z (ip), vehicle: saline 116 % of control | dose: 0.44 mg/kg/injection, schedule: Q01DX Z (ip), vehicle: saline 107 % of control | dose: 0.5 mg/kg/injection, schedule: Q01DX009 (ip), vehicle: saline 107 % of control | dose: 0.67 mg/kg/injection, schedule: Q01DX Z (ip), vehicle: saline 112 % of control | dose: 0.8 mg/kg/injection, schedule: Q## X008 (ip), vehicle: saline 113 % of control | dose: 0.8 mg/kg/injection, schedule: Q## X032 (ip), vehicle: saline 113 % of control | dose: 1.0 mg/kg/injection, schedule: Q01DX001 (ip), vehicle: saline 115 % of control | dose: 1.0 mg/kg/injection, schedule: Q01DX009 (ip), vehicle: saline 106 % of control | dose: 1.0 mg/kg/injection, schedule: Q01DX Z (ip), vehicle: saline 107 % of control | dose: 1.5 mg/kg/injection, schedule: Q01DX Z (ip), vehicle: carboxymethylcellulose (CMC) 116 % of control | dose: 2.0 mg/kg/injection, schedule: Q01DX001 (ip), vehicle: saline 120 % of control | dose: 2.0 mg/kg/injection, schedule: Q01DX009 (ip), vehicle: saline 86 % of control | dose: 2.0 mg/kg/injection, schedule: Q01DX Z (ip), vehicle: carboxymethylcellulose (CMC) 102 % of control | dose: 4.0 mg/kg/injection, schedule: Q01DX001 (ip), vehicle: saline 114 % of control | dose: 5.0 mg/kg/injection, schedule: Q01DX001 (ip), vehicle: saline 118 % of control | dose: 8.0 mg/kg/injection, schedule: Q01DX001 (ip), vehicle: saline 108 % of control | dose: 8.0 mg/kg/injection, schedule: Q## X008 (ip), vehicle: saline 109 % of control | dose: 8.0 mg/kg/injection, schedule: Q## X032 (ip), vehicle: saline 103 % of control | dose: 10.0 mg/kg/injection, schedule: Q01DX001 (ip), vehicle: saline 109 % of control

CCCCCCCCCCCCC1C(=O)NC(=S)NC1=O
inactive: [5] 97 % of control and 100 % of control | dose: 150.0 mg/kg/injection, schedule: Q01DX001 (ip), vehicle: other 101 % of control and 113 % of control | dose: 300.0 mg/kg/injection, schedule: Q01DX001 (ip), vehicle: other 103 % of control

COc1ccc(C)c(CN(C)C)c1
inactive: dose: 50.0 mg/kg/injection, schedule: Q01DX001 (ip), vehicle: saline 107 % of control | dose: 100.0 mg/kg/injection, schedule: Q01DX001 (ip), vehicle: saline 101 % of control

O=C(NCCCl)OCCCl
inactive: [6] 94 % of control | dose: 200.0 mg/kg/injection, schedule: Q04DX002 (ip), vehicle: saline 97 % of control | dose: 400.0 mg/kg/injection, schedule: Q04DX002 (ip), vehicle: saline 94 % of control

NC(=O)c1ccn(C2OC(CO)C(O)C2O)n1 (stereo not given)
inactive: dose: 50.0 mg/kg/injection, schedule: Q01DX005 (ip), vehicle: water 105 % of control | dose: 100.0 mg/kg/injection, schedule: Q01DX005 (ip), vehicle: water 102 % of control | dose: 200.0 mg/kg/injection, schedule: Q01DX005 (ip), vehicle: water 102 % of control

N#CC(c1ccc(Cl)cc1)c1ccccn1 (stereo not given)
inactive: dose: 75.0 mg/kg/injection, schedule: Q04DX003 (ip), vehicle: other 96 % of control | dose: 150.0 mg/kg/injection, schedule: Q04DX003 (ip), vehicle: other 96 % of control | dose: 300.0 mg/kg/injection, schedule: Q04DX003 (ip), vehicle: other 94 % of control

O=C(Oc1c(Cl)c(Cl)c(Cl)c(Cl)c1Cl)c1cc(Cl)cc(Cl)c1Br
inactive: dose: 25.0 mg/kg/injection, schedule: Q04DX003 (ip), vehicle: saline with Tween-80 105 % of control | dose: 50.0 mg/kg/injection, schedule: Q04DX003 (ip), vehicle: saline with Tween-80 102 % of control | dose: 100.0 mg/kg/injection, schedule: Q04DX003 (ip), vehicle: saline with Tween-80 97 % of control and 91 % of control

N/C(=N\O)c1ncn(C2OC(CO)C(O)C2O)c1N (stereo not given)
inactive: dose: 100.0 mg/kg/injection, schedule: Q01DX005 (ip), vehicle: saline 103 % of control | dose: 200.0 mg/kg/injection, schedule: Q01DX005 (ip), vehicle: saline 108 % of control

Cc1cccc(C)c1NC(=O)Nc1ncccn1
inactive: dose: 25.0 mg/kg/injection, schedule: Q04DX002 (ip), vehicle: Klucel (hydroxypropylcellulose) (HPC) 99 % of control | dose: 50.0 mg/kg/injection, schedule: Q04DX002 (ip), vehicle: Klucel (hydroxypropylcellulose) (HPC) 96 % of control | [1] 103 % of control | dose: 100.0 mg/kg/injection, schedule: Q04DX002 (ip), vehicle: Klucel (hydroxypropylcellulose) (HPC) 105 % of control | [7] 104 % of control | dose: 200.0 mg/kg/injection, schedule: Q04DX002 (ip), vehicle: Klucel (hydroxypropylcellulose) (HPC) 97 % of control | dose: 400.0 mg/kg/injection, schedule: Q01DX009 (ip), vehicle: Klucel (hydroxypropylcellulose) (HPC) 101 % of control | dose: 400.0 mg/kg/injection, schedule: Q04DX002 (ip), vehicle: Klucel (hydroxypropylcellulose) (HPC) 93 % of control

CC(NC(=O)CNC(=O)CNC(=O)OCc1ccccc1)C(=O)O (stereo not given)
inactive: [2] 97 % of control | [3] 100 % of control | [4] 91 % of control

COc1ccc(NN=Nc2ccccc2C#N)cc1
inactive: [2] 106 % of control | [3] 100 % of control | [4] 108 % of control
